Patent publication US20040156869A1, “2-substituted quinazolin-4-ylamine analogues” (Neurogen Corporation, priority 2002, published 2004)

Biological target: human capsaicin receptor (VR1) (Homo sapiens, UniProt Q8NER1)
Test: Capsaicin receptor binding assay ([3H]RTX competition, VR1-transfected HEK293 membranes)

Sequence of human capsaicin receptor (VR1) (Q8NER1 whole entry): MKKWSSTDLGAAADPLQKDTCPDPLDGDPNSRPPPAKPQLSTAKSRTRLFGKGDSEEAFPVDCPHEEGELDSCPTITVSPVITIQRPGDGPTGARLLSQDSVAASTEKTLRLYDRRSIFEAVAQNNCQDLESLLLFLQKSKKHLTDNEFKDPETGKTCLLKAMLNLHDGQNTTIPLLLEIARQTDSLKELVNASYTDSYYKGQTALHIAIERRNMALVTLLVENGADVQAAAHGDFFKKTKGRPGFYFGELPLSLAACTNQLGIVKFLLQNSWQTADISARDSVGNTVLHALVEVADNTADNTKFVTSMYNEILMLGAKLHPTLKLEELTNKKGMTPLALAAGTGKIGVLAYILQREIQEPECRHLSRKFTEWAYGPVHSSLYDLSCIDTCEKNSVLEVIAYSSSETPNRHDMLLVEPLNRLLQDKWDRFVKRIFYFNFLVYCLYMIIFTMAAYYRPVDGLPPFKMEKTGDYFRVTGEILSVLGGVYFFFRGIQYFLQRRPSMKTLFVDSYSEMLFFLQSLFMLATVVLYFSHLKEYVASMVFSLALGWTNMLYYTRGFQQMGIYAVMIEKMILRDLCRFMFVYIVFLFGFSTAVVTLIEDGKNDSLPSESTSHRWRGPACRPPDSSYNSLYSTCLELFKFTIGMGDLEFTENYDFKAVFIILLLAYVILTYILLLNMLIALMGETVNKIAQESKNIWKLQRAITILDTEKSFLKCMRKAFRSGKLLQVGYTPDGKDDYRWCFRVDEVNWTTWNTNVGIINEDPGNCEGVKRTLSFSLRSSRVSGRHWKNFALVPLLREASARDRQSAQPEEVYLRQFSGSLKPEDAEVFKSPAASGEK

Row | Ki | SMILES
1 | < 1000 nM | C[C@H]1CN(Cc2nc(Nc3ccc(C(C)(C)C)cc3)c3ccc(-c4ncccc4Cl)cc3n2)C[C@H](C)O1 [Compound 649, (S,S)-(4-tert-Butyl-phenyl)-[7-(3-chloro-pyridin-2-yl)-2-(2,6-dimethyl-morpholin-4-ylmethyl)-quinazolin-4-yl]-amine]
2 | < 1000 nM | CC(C)c1ccc(Nc2nc(CN3C[C@H](C)O[C@@H](C)C3)nc3cc(-c4ncccc4Cl)ccc23)cc1 [Compound 650, (S,S)-[7-(3-Chloro-pyridin-2-yl)-2-(2,6-dimethyl-morpholin-4-ylmethyl)-quinazolin-4-yl]-(4-isopropyl-phenyl)-amine]
3 | < 1000 nM | CCc1ccc(Nc2nc(CN3C[C@H](C)O[C@@H](C)C3)nc3cc(-c4ncccc4Cl)ccc23)cc1 [Compound 651, (S,S)-[7-(3-Chloro-pyridin-2-yl)-2-(2,6-dimethyl-morpholin-4-ylmethyl)-quinazolin-4-yl]-(4-ethyl-phenyl)-amine]
4 | < 1000 nM | CC(C)c1ccc(Nc2nc(CN3C[C@@H](C)O[C@H](C)C3)nc3cc(-c4ncccc4C(F)(F)F)ccc23)cc1 [Compound 652, (R,R)-[2-(2,6-Dimethyl-morpholin-4-ylmethyl)-7-(3-trifluoromethyl-pyridin-2-yl)-quinazolin-4-yl]-(4-isopropyl-phenyl)-amine]
5 | < 1000 nM | C[C@@H]1CN(Cc2nc(Nc3ccc(Cl)cc3)c3ccc(-c4ncccc4C(F)(F)F)cc3n2)C[C@@H](C)O1 [Compound 654, (R,R)-(4-Chloro-phenyl)-[2-(2,6-dimethyl-morpholin-4-ylmethyl)-7-(3-trifluoromethyl-pyridin-2-yl)-quinazolin-4-yl]-amine]
6 | < 1000 nM | CC(C)S(=O)(=O)c1ccc(Nc2nc(CN3C[C@@H](C)O[C@H](C)C3)nc3cc(-c4ncccc4C(F)(F)F)ccc23)cc1 [Compound 655, (R,R)-[2-(2,6-Dimethyl-morpholin-4-ylmethyl)-7-(3-trifluoromethyl-pyridin-2-yl)-quinazolin-4-yl]-[4-(propane-2-sulfonyl)-phenyl]-amine]
7 | < 1000 nM | O=C(OCc1ccccc1)N1CCC[C@H]1c1nc(Nc2ccc(C(F)(F)F)cc2)c2ccc(-c3ncccc3C(F)(F)F)cc2n1 [Compound 656, (S)-2-[4-(4-Trifluoromethyl-phenylamino)-7-(3-trifluoromethyl-pyridin-2-yl)-quinazolin-2-yl]-pyrrolidine-1-carboxylic acid benzyl ester]
8 | < 1000 nM | C[C@@H]1CN(Cc2nc(Nc3ccc(C(F)(F)F)cc3)c3ncc(-c4ncccc4C(F)(F)F)cc3n2)C[C@@H](C)O1 [Compound 657, (R,R)-[2-(2,6-Dimethyl-morpholin-4-ylmethyl)-7-(3-trifluoromethyl-pyridin-2-yl)-pyrido[3,2-d]pyrimidin-4-yl]-(4-trifluoromethyl-phenyl)-amine]
9 | < 1000 nM | C[C@H]1CN(Cc2nc(Nc3ccc(C(F)(F)F)cc3)c3ncc(-c4ncccc4C(F)(F)F)cc3n2)C[C@H](C)O1 [Compound 658, (S,S)-[2-(2,6-Dimethyl-morpholin-4-ylmethyl)-7-(3-trifluoromethyl-pyridin-2-yl)-pyrido[3,2-d]pyrimidin-4-yl]-(4-trifluoromethyl-phenyl)-amine]
10 | < 1000 nM | FC(F)(F)c1ccc(Nc2nc(CN3CCCCCC3)nc3cc(-c4ncccc4C(F)(F)F)cnc23)cc1 [Compound 659, [2-Azepan-1-ylmethyl-7-(3-trifluoromethyl-pyridin-2-yl)-pyrido[3,2-d]pyrimidin-4-yl]-(4-trifluoromethyl-phenyl)-amine]
11 | < 1000 nM | FC(F)(F)c1ccc(Nc2nc(CN3CCSCC3)nc3cc(-c4ncccc4C(F)(F)F)cnc23)cc1 [Compound 660, [2-Thiomorpholin-4-ylmethyl-7-(3-trifluoromethyl-pyridin-2-yl)-pyrido[3,2-d]pyrimidin-4-yl]-(4-trifluoromethyl-phenyl)-amine]
12 | < 1000 nM | CC1(C)CCCN(Cc2nc(Nc3ccc(C(F)(F)F)cc3)c3ncc(-c4ncccc4C(F)(F)F)cc3n2)C1 [Compound 661, [2-(3,3-Dimethyl-piperidin-1-ylmethyl)-7-(3-trifluoromethyl-pyridin-2-yl)-pyrido[3,2-d]pyrimidin-4-yl]-(4-trifluoromethyl-phenyl)-amine]
13 | < 1000 nM | C=CCN(C)Cc1nc(Nc2ccc(C(F)(F)F)cc2)c2ncc(-c3ncccc3C(F)(F)F)cc2n1 [Compound 662, [2-[(Allyl-methyl-amino)-methyl]-7-(3-trifluoromethyl-pyridin-2-yl)-pyrido[3,2-d]pyrimidin-4-yl]-(4-trifluoromethyl-phenyl)-amine]
14 | < 1000 nM | C=CCN(CC=C)Cc1nc(Nc2ccc(C(F)(F)F)cc2)c2ncc(-c3ncccc3C(F)(F)F)cc2n1 [Compound 663, [2-Diallylaminomethyl-7-(3-trifluoromethyl-pyridin-2-yl)-pyrido[3,2-d]pyrimidin-4-yl]-(4-trifluoromethyl-phenyl)-amine]
15 | < 1000 nM | CCCN(CCC)Cc1nc(Nc2ccc(C(F)(F)F)cc2)c2ncc(-c3ncccc3C(F)(F)F)cc2n1 [Compound 664, [2-Dipropylaminomethyl-7-(3-trifluoromethyl-pyridin-2-yl)-pyrido[3,2-d]pyrimidin-4-yl]-(4-trifluoromethyl-phenyl)-amine]
16 | < 1000 nM | CCCN(Cc1nc(Nc2ccc(C(F)(F)F)cc2)c2ncc(-c3ncccc3C(F)(F)F)cc2n1)CC1CC1 [Compound 665, [2-[(Cyclopropylmethyl-propyl-amino)-methyl]-7-(3-trifluoromethyl-pyridin-2-yl)-pyrido[3,2-d]pyrimidin-4-yl]-(4-trifluoromethyl-phenyl)-amine]
17 | < 1000 nM | CCCCN(CCCC)Cc1nc(Nc2ccc(C(F)(F)F)cc2)c2ncc(-c3ncccc3C(F)(F)F)cc2n1 [Compound 666, [2-Dibutylaminomethyl-7-(3-trifluonmethyl-pyridin-2-yl)-pyrido[3,2-d]pyrimidin-4-yl]-(4-trifluoromethyl-phenyl)-amine]
18 | < 1000 nM | C=C(C)CN(CC)Cc1nc(Nc2ccc(C(F)(F)F)cc2)c2ncc(-c3ncccc3C(F)(F)F)cc2n1 [Compound 667, [2-{[Ethyl-(2-methyl-allyl)-amino]-methyl}-7-(3-trifluoromethyl-pyridin-2-yl)-pyrido[3,2-d]pyrimidin-4-yl]-(4-trifluoromethyl-phenyl)-amine]
19 | < 1000 nM | C[C@@H]1C[C@H](C)CN(Cc2nc(Nc3ccc(C(F)(F)F)cc3)c3ncc(-c4ncccc4C(F)(F)F)cc3n2)C1 [Compound 668, [2-(3,5-Dimethyl-piperidin-1-ylmethyl)-7-(3-trifluoromethyl-pyridin-2-yl)-pyrido[3,2-d]pyrimidin-4-yl]-(4-trifluoromethyl-phenyl)-amine (cis)]
20 | < 1000 nM | CC1CCCN(Cc2nc(Nc3ccc(C(F)(F)F)cc3)c3ncc(-c4ncccc4C(F)(F)F)cc3n2)C1 (stereo not drawn) [Compound 669, [2-(3-Methyl-piperidin-1-ylmethyl)-7-(3-trifluoromethyl-pyridin-2-yl)-pyrido[3,2-d]pyrimidin-4-yl]-(4-trifluoromethyl-phenyl)-amine]
21 | < 1000 nM | COCCN(CCOC)Cc1nc(Nc2ccc(C(F)(F)F)cc2)c2ncc(-c3ncccc3C(F)(F)F)cc2n1 [Compound 670, [2-{[Bis-(2-methoxy-ethyl)-amino]-methyl}-7-(3-trifluoromethyl-pyridin-2-yl)-pyrido[3,2-d]pyrimidin-4-yl]-(4-trifluoromethyl-phenyl)-amine]
22 | < 1000 nM | FC(F)(F)c1ccc(Nc2nc(CN3C=NCCC3)nc3cc(-c4ncccc4C(F)(F)F)ccc23)cc1 [Compound 671, [2-(5,6-Dihydro-4H-pyrimidin-1-ylmethyl)-7-(3-trifluoromethyl-pyridin-2-yl)-quinazolin-4-yl]-(4-trifluoromethyl-phenyl)-amine]
23 | < 1000 nM | C[C@@H]1CN(Cc2nc(Nc3ccc(C(C)(C)C)cc3)c3ccc(-c4ncccc4Cl)cc3n2)CCO1 [Compound 672, (R)-(4-tert-Butyl-phenyl)-[7-(3-chloro-pyridin-2-yl)-2-(2-methyl-morpholin-4-ylmethyl)-quinazolin-4-yl]-amine]
24 | < 1000 nM | CC(C)c1ccc(Nc2nc(CN3CCO[C@H](C)C3)nc3cc(-c4ncccc4Cl)ccc23)cc1 [Compound 673, (R)-[7-(3-Chloro-pyridin-2-yl)-2-(2-methyl-morpholin-4-ylmethyl)-quinazolin-4-yl]-(4-isopropyl-phenyl)-amine]
25 | < 1000 nM | C[C@@H]1CN(Cc2nc(Nc3ccc(C(F)(F)F)cc3)c3ccc(-c4ncccc4Cl)cc3n2)CCO1 [Compound 674, (R)-[7-(3-Chloro-pyridin-2-yl)-2-(2-methyl-morpholin-4-ylmethyl)-quinazolin-4-yl]-(4-trifluoromethyl-phenyl)-amine]
26 | < 1000 nM | C[C@@H]1CN(Cc2nc(Nc3ccc(C(C)(C)C)cc3)c3ccc(-c4ccncc4)cc3n2)C[C@H](C)O1 [Compound 675, (4-tert-Butyl-phenyl)-[2-(2,6-dimethyl-morpholin-4-ylmethyl)-7-pyridin-4-yl-quinazolin-4-yl]-amine (cis)]
27 | < 1000 nM | C[C@@H]1CN(Cc2nc(Nc3ccc(C(C)(C)C)cc3)c3ccc(-c4cccnc4)cc3n2)C[C@H](C)O1 [Compound 676, (4-tert-Butyl-phenyl)-[2-(2,6-dimethyl-morpholin-4-ylmethyl)-7-pyridin-3-yl-quinazolin-4-yl]-amine (cis)]
28 | < 1000 nM | C[C@@H]1CN(Cc2nc(Nc3ccc(C(C)(C)C)cc3)c3ccc(-c4cncnc4)cc3n2)C[C@H](C)O1 [Compound 677, (4-tert-Butyl-phenyl)-[2-(2,6-dimethyl-morpholin-4-ylmethyl)-7-pyrimidin-5-yl-quinazolin-4-yl]-amine (cis)]
29 | < 1000 nM | COc1ncc(-c2ccc3c(Nc4ccc(C(C)(C)C)cc4)nc(CN4C[C@@H](C)O[C@@H](C)C4)nc3c2)c(OC)n1 [Compound 678, (4-tert-Butyl-phenyl)-[7-(2,4-dimethoxy-pyrimidin-5-yl)-2-(2,6-dimethyl-morpholin-4-ylmethyl)-quinazolin-4-yl]-amine (cis)]
30 | < 1000 nM | FC(F)(F)c1ccc(Nc2nc(C3CCNCC3)nc3cc(-c4ncccc4C(F)(F)F)ccc23)cc1 [Compound 679, [2-Piperidin-4-yl-7-(3-trifluoromethyl-pyridin-2-yl)-quinazolin-4-yl]-(4-trifluoromethyl-phenyl)-amine]
